Assay results taken from the NIST ThermoML archive (doi:10.1021/je060271a).

Details: 323.15 K, Liquid, Vibrating tube method

CCCCCCC(=O)OCC(COC(=O)CCCCCC)(COC(=O)CCCCCC)COC(=O)CCCCCC [pentaerythritol tetraheptanoate]
Details | mass density [kg/m3]
10134 kPa | 962.4
10149 kPa | 962.4
10164 kPa | 962.4
10178 kPa | 962.4
10196 kPa | 962.4
10211 kPa | 962.5
10229 kPa | 962.4
10244 kPa | 962.5
10259 kPa | 962.5
10274 kPa | 962.5
10292 kPa | 962.5
10307 kPa | 962.6
10322 kPa | 962.6
10338 kPa | 962.5
10356 kPa | 962.7
10371 kPa | 962.6
10386 kPa | 962.7
10405 kPa | 962.7
10420 kPa | 962.7
10436 kPa | 962.7
10468 kPa | 962.6
10487 kPa | 962.6
10503 kPa | 962.8
10519 kPa | 962.7
10538 kPa | 962.7
10553 kPa | 962.7
10572 kPa | 962.8
10588 kPa | 962.7
10604 kPa | 962.8
10620 kPa | 962.8
10639 kPa | 962.8
10656 kPa | 962.8
10672 kPa | 962.7
10692 kPa | 962.8
10708 kPa | 962.8
10725 kPa | 962.8
10741 kPa | 962.8
10761 kPa | 962.8
10777 kPa | 962.8
10794 kPa | 962.9
10814 kPa | 962.9
10831 kPa | 963
10851 kPa | 963
10868 kPa | 963
10885 kPa | 962.9
10902 kPa | 963
10923 kPa | 963
10939 kPa | 963
11105 kPa | 963.1
11376 kPa | 963.3
11395 kPa | 963.2
11414 kPa | 963.3
11433 kPa | 963.2
11455 kPa | 963.3
11474 kPa | 963.3
11493 kPa | 963.4
11516 kPa | 963.3
11535 kPa | 963.3
11558 kPa | 963.4
11577 kPa | 963.4
11597 kPa | 963.4
11616 kPa | 963.5
11640 kPa | 963.4
11659 kPa | 963.3
11979 kPa | 963.7
12025 kPa | 963.7
12045 kPa | 963.6
12070 kPa | 963.6
12091 kPa | 963.7
12113 kPa | 963.7
12138 kPa | 963.7
12159 kPa | 963.7
12181 kPa | 963.8
12205 kPa | 963.8
12226 kPa | 963.7
12252 kPa | 963.7
12274 kPa | 963.9
12296 kPa | 963.8
12322 kPa | 963.9
12344 kPa | 963.9
12367 kPa | 964
12389 kPa | 963.9
12416 kPa | 963.9
12438 kPa | 964
12488 kPa | 963.9
12510 kPa | 963.9
12533 kPa | 964.1
12583 kPa | 964.1
12606 kPa | 964.1
12634 kPa | 964.1
12680 kPa | 964.2
12756 kPa | 964.1
12832 kPa | 964.3
12856 kPa | 964.2
12884 kPa | 964.2
12908 kPa | 964.2
12937 kPa | 964.3
13227 kPa | 964.5
14188 kPa | 965.1
14278 kPa | 965.1
14314 kPa | 965
14343 kPa | 965.1
14609 kPa | 965.3
14641 kPa | 965.4
14675 kPa | 965.3
14706 kPa | 965.3
14744 kPa | 965.4
14917 kPa | 965.5
14957 kPa | 965.6
14988 kPa | 965.6
15013 kPa | 965.6
15044 kPa | 965.4
15070 kPa | 965.6
15097 kPa | 965.6
15124 kPa | 965.6
15154 kPa | 965.6
15175 kPa | 965.8
15192 kPa | 965.7
15213 kPa | 965.7
15230 kPa | 965.7
15251 kPa | 965.6
15268 kPa | 965.8
15287 kPa | 965.7
15328 kPa | 965.7
15347 kPa | 965.7
15381 kPa | 965.7
15629 kPa | 966.1
15638 kPa | 966.1
15649 kPa | 966
15707 kPa | 966
15727 kPa | 966
15736 kPa | 966
15745 kPa | 966
15765 kPa | 966.1
15774 kPa | 966.1
15785 kPa | 966.1
15794 kPa | 966
15804 kPa | 965.9
15814 kPa | 966
15824 kPa | 966.2
15833 kPa | 966.2
15844 kPa | 966.1
15863 kPa | 966.1
15903 kPa | 966.2
15953 kPa | 966.3
15962 kPa | 966.3
15972 kPa | 966.2
15981 kPa | 966.2
15992 kPa | 966.3
16003 kPa | 966.2
16012 kPa | 966.2
16021 kPa | 966.3
16033 kPa | 966.3
16042 kPa | 966.2
16052 kPa | 966.3
16063 kPa | 966.3
16072 kPa | 966.3
16083 kPa | 966.2
16092 kPa | 966.3
16102 kPa | 966.3
16112 kPa | 966.2
16123 kPa | 966.2
16133 kPa | 966.3
16142 kPa | 966.4
16154 kPa | 966.3
16163 kPa | 966.3
16175 kPa | 966.3
16184 kPa | 966.3
16194 kPa | 966.4
16203 kPa | 966.4
16215 kPa | 966.3
16224 kPa | 966.3
16234 kPa | 966.5
16246 kPa | 966.4
16256 kPa | 966.3
16267 kPa | 966.4
16277 kPa | 966.3
16286 kPa | 966.4
16296 kPa | 966.5
16308 kPa | 966.3
16317 kPa | 966.4
16329 kPa | 966.4
16339 kPa | 966.3
16349 kPa | 966.4
16360 kPa | 966.4
16370 kPa | 966.6
16380 kPa | 966.4
16390 kPa | 966.3
16402 kPa | 966.4
16412 kPa | 966.4
16422 kPa | 966.5
16434 kPa | 966.6
16443 kPa | 966.5
16455 kPa | 966.5
16465 kPa | 966.5
16475 kPa | 966.5
16487 kPa | 966.6
16496 kPa | 966.5
16507 kPa | 966.6
16519 kPa | 966.6
16529 kPa | 966.6
16539 kPa | 966.6
16551 kPa | 966.5
16562 kPa | 966.6
16572 kPa | 966.5
16582 kPa | 966.6
16594 kPa | 966.5
16604 kPa | 966.7
16614 kPa | 966.6
16626 kPa | 966.8
16636 kPa | 966.6
16649 kPa | 966.4
16657 kPa | 966.6
16670 kPa | 966.7
16680 kPa | 966.6
16692 kPa | 966.6
16702 kPa | 966.7
16712 kPa | 966.6
16725 kPa | 966.6
16735 kPa | 966.7
16823 kPa | 966.7
16834 kPa | 966.7
16844 kPa | 966.8
16857 kPa | 966.6
